Reference: publication PMC4403932 (Journal of Medicinal Chemistry, 2015)
Read-outs that look alike come from different tables or passages of the source.

Columns and labels:
Type in all cases: binding
BRD3(1) = target: T1, BRD3(1) (Homo sapiens, UniProt Q15059); assay: Protein stability (thermal) shift assay, BRD3(1); details: compound 10 μM, protein 2 μM; average of triplicate
T1 construct: Fragments were tested in a thermal shift assay against bromodomains of the BET subfamily; made in house
Procedure: (§1) Thermal melting experiments were carried out using an Mx3005p real time PCR machine (Stratagene). Proteins were buffered in 10 mM HEPES, pH 7.5, 500 mM NaCl and assayed in a 96-well plate at a final concentration of 2 μM in 20 μL volume. Compounds were added at a final concentration of 10 or 100 μM. SYPRO Orange (Molecular Probes) was added as a fluorescence probe at a dilution of 1 in 1000. Excitation and emission filters for the SYPRO-Orange dye were set to 465 and 590 nm, respectively. The temperature was raised with a step of 3 °C per minute from 25 to 96 °C, and fluorescence readings were taken at each interval. The temperature dependence of the fluorescence during the protein denaturation process was approximated by the equation [drawing 1] where ΔuG is the difference in unfolding free energy between the folded and unfolded state, R is the gas constant, and yF and yU are the fluorescence intensity of the probe in the presence of completely folded and unfolded protein, respectively.[65] The baselines of the denatured and native states were approximated by a linear fit. The observed temperature shifts, ΔTm^obs, were recorded as the difference between the transition midpoints of sample and reference wells containing protein without ligand in the same plate and determined by nonlinear least-squares fit. Temperature shifts (ΔTm^obs) for three independent measurements per proteins/compound are summarized in Supporting Information Table S1.

PB1(5) = target: T2, PB1(5) (Homo sapiens, UniProt Q86U86); assay: Protein stability (thermal) shift assay, PB1(5); details: compound 10 μM, protein 2 μM; average of triplicate
T2 construct: made in house
T2 sequence (Q86U86 653-763 limits assumed): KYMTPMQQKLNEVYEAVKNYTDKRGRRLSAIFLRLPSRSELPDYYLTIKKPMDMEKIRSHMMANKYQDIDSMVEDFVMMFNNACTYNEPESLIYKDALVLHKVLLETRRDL
Procedure: as §1

BRD3(2) = target: T3, BRD3(2) (Homo sapiens, UniProt Q15059); assay: Protein stability (thermal) shift assay, BRD3(2); details: compound 10 μM, protein 2 μM; average of triplicate
T3 construct: made in house
T3 sequence (Q15059 306-415 limits assumed): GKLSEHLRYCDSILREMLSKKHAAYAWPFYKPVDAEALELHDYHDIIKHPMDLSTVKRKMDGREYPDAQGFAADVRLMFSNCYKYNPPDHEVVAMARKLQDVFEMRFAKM
Procedure: as §1

BRD9 [1] = target: T4, BRD9 (Homo sapiens, UniProt Q9H8M2); assay: Protein stability (thermal) shift assay, BRD9
T4 construct: made in house
T4 sequence (Q9H8M2 136-240 limits assumed): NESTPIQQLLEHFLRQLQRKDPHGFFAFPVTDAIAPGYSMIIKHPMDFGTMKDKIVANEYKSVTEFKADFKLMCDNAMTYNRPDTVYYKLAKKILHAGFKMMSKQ
Procedure: as §1

PCAF = target: T5, PCAF (Homo sapiens, UniProt Q92831); assay: Protein stability (thermal) shift assay, PCAF; details: compound 10 μM, protein 2 μM; average of triplicate
T5 construct: representative BRDs from other structural subfamilies (family I, PCAF); made in house
T5 sequence (Q92831 723-827 limits assumed): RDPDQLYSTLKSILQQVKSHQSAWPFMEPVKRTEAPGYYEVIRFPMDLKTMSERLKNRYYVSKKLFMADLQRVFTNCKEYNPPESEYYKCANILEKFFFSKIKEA
Procedure: as §1

BRDT(2) = target: T6, BRDT(2) (Homo sapiens, UniProt Q58F21); assay: Protein stability (thermal) shift assay, BRDT(2); details: compound 10 μM, protein 2 μM; average of triplicate; read-out: ΔTm Shift, BRDT(2)
T6 construct: made in house
Procedure: as §1

BRD2(1) = target: T7, BRD2(1) (Homo sapiens, UniProt P25440); assay: Protein stability (thermal) shift assay, BRD2(1); details: compound 10 μM, protein 2 μM; average of triplicate
T7 construct: Fragments were tested in a thermal shift assay against bromodomains of the BET subfamily; made in house
T7 sequence (P25440 74-180 limits assumed): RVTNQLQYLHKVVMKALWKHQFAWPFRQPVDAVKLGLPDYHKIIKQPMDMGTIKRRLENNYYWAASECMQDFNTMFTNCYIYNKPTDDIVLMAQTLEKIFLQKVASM
Procedure: as §1

BRD4(2) = target: T8, BRD4(2) (Homo sapiens, UniProt O60885); assay: Protein stability (thermal) shift assay, BRD4(2); details: compound 10 μM, protein 2 μM; average of triplicate
T8 construct: made in house
Procedure: as §1

BRD2(2) = target: T9, BRD2(2) (Homo sapiens, UniProt P25440); assay: Protein stability (thermal) shift assay, BRD2(2); details: compound 10 μM, protein 2 μM; average of triplicate
T9 construct: made in house
T9 sequence (P25440 344-453 limits assumed): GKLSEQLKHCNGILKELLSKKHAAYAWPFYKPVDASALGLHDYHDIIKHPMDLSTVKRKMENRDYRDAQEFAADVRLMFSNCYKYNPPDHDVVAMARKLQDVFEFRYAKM
Procedure: as §1

BRDT(1) = target: T10, BRDT(1) (Homo sapiens, UniProt Q58F21); assay: Protein stability (thermal) shift assay, BRDT(1); details: compound 10 μM, protein 2 μM; average of triplicate
T10 construct: made in house
Procedure: as §1

BAZ2B = target: T11, BAZ2B (Homo sapiens, UniProt Q9UIF8); assay: Protein stability (thermal) shift assay, BAZ2B; details: compound 10 μM, protein 2 μM; average of triplicate; read-out: ΔTm Shift, BAZ2BA
T11 construct: representative BRDs from other structural subfamilies (family I, PCAF); family III, CREBBP; family IV, BRD9; family V, BAZ2B; made in house
T11 sequence (Q9UIF8 2060-2164 limits assumed): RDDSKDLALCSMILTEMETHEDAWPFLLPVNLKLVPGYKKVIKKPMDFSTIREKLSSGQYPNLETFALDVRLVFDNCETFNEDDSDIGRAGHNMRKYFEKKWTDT
Procedure: as §1

BRD9 [2] = target: T4, BRD9; assay: Isothermal titration calorimetry, BRD9; details: for Kd: read-out: KD; for LE (ligand efficiency): LE = ΔG/N, N number of non-hydrogen atoms
Procedure: Experiments were carried out on an ITC200 titration microcalorimeter from MicroCal, LLC (GE Healthcare) equipped with a Washing module, with a cell volume of 0.2003 mL, and a 40 μL microsyringe. Experiments were carried out at 15 °C while stirring at 1000 rpm, in ITC buffer (50 mM HEPES, pH 7.5 (at 25 °C), 150 mM NaCl). The microsyringe was loaded with a solution of the protein sample (300−740 μM protein for BRD9 and BRD4(1), respectively, in ITC buffer) and was carefully inserted into the calorimetric cell which was filled with an amount of the ligand (0.2 mL, 20–25 μM in ITC buffer). The system was first allowed to equilibrate until the cell temperature reached 15 °C, and an additional delay of 60 s was applied. All titrations were conducted using an initial control injection of 0.3 μL followed by 38 identical injections of 1 μL with a duration of 2 s (per injection) and a spacing of 120 s between injections. The titration experiments were designed in such a fashion as to ensure complete saturation of the proteins before the final injection. The heat of dilution for the proteins was independent of their concentration and corresponded to the heat observed from the last injection, following saturation of ligand binding, thus facilitating the estimation of the baseline of each titration from the last injection. The collected data were corrected for protein heats of dilution (measured on separate experiments by titrating the proteins into ITC buffer) and deconvoluted using the MicroCal Origin software supplied with the instrument to yield enthalpies of binding (ΔH) and binding constants (KB) in the same fashion as that previously described in detail by Wiseman and co-workers.[66] Thermodynamic parameters were calculated using the basic equation of thermodynamics (ΔG = ΔH – TΔS = −RT ln KB, where ΔG, ΔH, and ΔS are the changes in free energy, enthalpy, and entropy of binding, respectively). In all cases a single binding site model was employed, supplied with the MicroCal Origin software package.

CREBBP = target: T12, CREBBP (Homo sapiens, UniProt Q92793); assay: Protein stability (thermal) shift assay, CREBBP
T12 construct: small thermal shits (1.0–1.3 °C) for the bromodomain of CREBBP; made in house
T12 sequence (Q92793 1085-1192 limits assumed): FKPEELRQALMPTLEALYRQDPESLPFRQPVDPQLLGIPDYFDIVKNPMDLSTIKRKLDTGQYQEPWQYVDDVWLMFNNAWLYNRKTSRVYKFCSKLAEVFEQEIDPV
Procedure: as §1

BRD4(1) = target: T13, BRD4(1) (Homo sapiens, UniProt O60885); assay: Protein stability (thermal) shift assay, BRD4(1); details: compound 10 μM, protein 2 μM; average of triplicate; read-out: ΔTm Shift, BRD4(1)
T13 construct: made in house
Procedure: as §1

[3] = compound 10 μM, protein 2 μM, average of triplicate, read-out: ΔTm Shift, BRD9
[4] = ITC, 50 mM HEPES pH 7.5, 150 mM NaCl, 15 °C, reverse titration, triplicate
[5] = compound 10 μM, protein 2 μM, average of triplicate, read-out: ΔTm Shift, CREBBP
[6] = thermal shift, 10 μM compound, 2 μM protein, read-out: ΔTm

T1 sequence (Q15059 34-140 limits assumed): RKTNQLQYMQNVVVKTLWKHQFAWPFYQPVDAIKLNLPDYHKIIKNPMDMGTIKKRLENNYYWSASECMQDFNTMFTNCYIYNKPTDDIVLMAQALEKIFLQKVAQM

| SMILES | ΔTm at 10 µM (BRD3(1)) [°C] | ΔTm at 10 µM (PB1(5)) [°C] | ΔTm at 10 µM (BRD3(2)) [°C] | ΔTm at 10 µM (BRD9 [1]; [3]) [°C] | ΔTm at 10 µM (PCAF) [°C] | ΔTm at 10 µM (BRDT(2)) [°C] | ΔTm at 10 µM (BRD2(1)) [°C] | ΔTm at 10 µM (BRD4(2)) [°C] | ΔTm at 10 µM (BRD2(2)) [°C] | ΔTm at 10 µM (BRDT(1)) [°C] | ΔTm at 10 µM (BAZ2B) [°C] | ΔTm at 10 µM (CREBBP; [5]) [°C] | ΔTm at 10 µM (BRD4(1)) [°C] | also measured |
| --- | --- | --- | --- | --- | --- | --- | --- | --- | --- | --- | --- | --- | --- | --- |
| Cn1cnc2c(Br)nc(N)nc21 [Compound 2b, 2-Amino-6-bromo-9-methylpurine] | 0.654 | 1.9 | -0.6 | -0.0162 | -1.6 | -0.4 | -0.239 | -2.4 | -1.8 | -0.8 | -0.8 | 3.1 | 1.4 | KD (BRD9 [2]; [4]): no binding/weak |
| COc1ccc(F)cc1-c1nc(N)nc2[nH]cnc12 [Compound 7b, 2-Amino-6-(5-fluoro-2-methoxyphenyl)-9H-purine] | 0.548 | 0.5 | 0.8 | 2.6 | -0.151 | 3 | 0.3 | 0.1 | 0.8 | -0.111 | 0.3 | 0.356 | 0.369 | Kd (BRD9 [2]; [4]): 0.351 ± 0.018 µM; TΔS (BRD9 [2]; ITC, 15 °C): –4.52 kcal/mol; ΔG (BRD9 [2]; ITC, 15 °C): –8.52 kcal/mol; N (stoichiometry) (BRD9 [2]; ITC, 15 °C, reverse titration): 0.97 ± 0.004; ΔHobs (BRD9 [2]; ITC, 15 °C, reverse titration): –13.04 ± 0.07 kcal/mol; LE (ligand efficiency) (BRD9 [2]): 0.45 |
| COc1ccccc1-c1nc(N)nc2[nH]cnc12 [Compound 7a, 2-Amino-6-(2-methoxyphenyl)-9H-purine] | 1.4 | 0.236 | 2.5 |  | -0.7 | 1.4 | 0.6 | -2.2 | 1.7 | 0.6 | -0.217 |  | 2.3 | ΔTm at 10 µM (BRD9 [1]; [6]): 2.9 °C; Kd (BRD9 [2]; [4]): 0.641 ± 0.033 µM; ΔG (BRD9 [2]; ITC, 15 °C): –8.16 kcal/mol; N (stoichiometry) (BRD9 [2]; ITC, 15 °C, reverse titration): 1.06 ± 0.004; ΔHobs (BRD9 [2]; ITC, 15 °C, reverse titration): –12.71 ± 0.07 kcal/mol; LE (ligand efficiency) (BRD9 [2]): 0.45; ΔTm at 10 µM (CREBBP; [6]): 1.5 °C |
| Nc1nc(-c2ccc(Oc3ccccc3)cc2)c2nc[nH]c2n1 [Compound 3d, 2-Amino-6-(4-phenoxyphenyl)-9H-purine] | -0.127 | 0.0567 | 0.7 | 0.847 | 0.2 | 0.3 | -0.0833 | 0.5 | 0.5 | 0.253 | 0.273 | 0.6 | 0.533 |  |
| COc1ccc(-c2nc(N)nc3[nH]cnc23)cc1 [Compound 3b, 2-Amino-6-(4-methoxyphenyl)-9H-purine] | -0.06 | -0.08 | 0.4 | 0 | 0.0867 | -0.167 | -0.253 | 0.0133 | 0.337 | -0.133 | 0.00333 | 0.663 | 0.223 |  |
| CCCCOc1cc(Br)cc(-c2nc(N)nc3[nH]cnc23)c1 [Compound 5a, 2-Amino-6-(3-bromo-5-butoxyphenyl)-9H-purine] | 0.9 | 1.1 | 1.5 | 1.1 | 1.3 | 1.8 | 0.7 | 1.3 | 1.7 | 1 | 1.1 | 1.7 | 1.6 |  |
| CCOc1ccc(Br)cc1-c1nc(N)nc2[nH]cnc12 [Compound 7e, 2-Amino-6-(5-bromo-2-ethoxyphenyl)-9H-purine] | 1.6 | 0.3 | 2.7 | 0.316 | -1.1 | 1.5 | 0.4 | -1.5 | 1.7 | 0.275 | -0.5 | 0.5 | 1.9 | binding to BRD9 in the ΔTm assay (in words) (BRD9 [1]; thermal shift, 10 μM compound): Affinity for BRD9 was lost |
